Each compound was assayed against CDK2 (UniProt P24941) (assay: Enzyme Assay).

`Cc1cc(Nc2nccc(-c3cnn4ncccc34)n2)ccc1N1CCN(C)CC1` and `CN1CCN(c2ccc(Nc3nccc(-c4cnn5ncccc45)n3)cc2Cl)CC1` cannot be ordered by IC50: under 100 nM for the first, under 100 nM for the second.

`FC(F)(F)c1cccc(Nc2nccc(-c3cnn4ncccc34)n2)c1` and `N#Cc1cccc(Nc2nccc(-c3cnn4ncccc34)n2)c1` cannot be ordered by IC50: under 100 nM for the first, under 100 nM for the second.

`Clc1ccc(Nc2nccc(-c3cnn4ncccc34)n2)cc1` and `NS(=O)(=O)c1ccc(Nc2nccc(-c3cnn4ncccc34)n2)cc1` cannot be ordered by IC50: under 100 nM for the first, under 100 nM for the second.

`c1cc(Nc2nccc(-c3cnn4ncccc34)n2)cc(-c2cnco2)c1` and `O=[N+]([O-])c1cccc(Nc2nccc(-c3cnn4ncccc34)n2)c1` cannot be ordered by IC50: under 100 nM for the first, under 100 nM for the second.

`COc1ccc2c(-c3ccnc(NC4CC4)n3)cnn2n1` and `Clc1ccccc1-c1ccc2c(-c3ccnc(NC4CC4)n3)cnn2n1` cannot be ordered by IC50: under 1000 nM for the first, under 1000 nM for the second.

`O=C1CCCN1CCCNc1nccc(-c2cnn3ncccc23)n1` and `CN(C)c1ccc(Nc2nccc(-c3cnn4nc(N5CCOCC5)ccc34)n2)cc1` cannot be ordered by IC50: under 100 nM for the first, under 1000 nM for the second.
